What was measured:
EGFR (T790M/L858R) = target: T1, EGFR (T790M/L858R) (Homo sapiens, UniProt P00533, L858R/T790M); test: EGFR (T790M/L858R) kinase inhibitory activity; type: biochemical; conditions: ATP 1 μM, 25° C. for 120 minutes
T1 construct: purchased Carna Biosciences, Inc

EGFR (d746-750/T790M) = target: T2, EGFR (d746-750/T790M) (Homo sapiens, UniProt P00533, DEL746-750/T790M); test: EGFR (d746-750/T790M) kinase inhibitory activity; type: biochemical; conditions: ATP 1.5 μM
T2 construct: purchased Carna Biosciences, Inc
Method in brief: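 Recombinant human EGFR d746-750/T790M phosphorylating biotinylated peptide (250 nM) with 1.5 μM ATP, 10 mM MgCl2 and MnCl2, 2.5% DMSO, 120 min at 25 °C. EDTA-stopped; phosphotyrosine detected by Eu-PT66/APC-SA TR-FRET (665/620 nm ratio). IC50 from percent inhibition curves, EDTA-first samples as background.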

EGFR (L858R) = target: T3, EGFR (L858R) (Homo sapiens, UniProt P00533, L858R); test: EGFR (L858R) kinase inhibitory activity; type: biochemical; conditions: ATP 4 μM
T3 construct: purchased Carna Biosciences, Inc
Method in brief: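 Recombinant human EGFR (L858R) was incubated with 250 nM biotinylated peptide, 4 μM ATP, 10 mM MgCl2 and 10 mM MnCl2 in 2.5% DMSO for 120 min at 25 °C. The reaction was stopped with EDTA, and phosphotyrosine was detected by TR-FRET (Eu-PT66 antibody/APC-SA, 665/620 nm ratio). IC50 was obtained from the inhibition curves.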

EGFR (d746-750) = target: T4, EGFR (d746-750) (Homo sapiens, UniProt P00533, DEL746-750); test: EGFR (d746-750) kinase inhibitory activity; type: biochemical; conditions: ATP 5 μM, kinase reaction 90 minutes
T4 construct: purchased Carna Biosciences, Inc
Method in brief: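 Recombinant human EGFR (d746-750) with 250 nM biotinylated peptide, 5 μM ATP, 10 mM MgCl2 and 10 mM MnCl2, 2.5% DMSO, reacted 90 min at 25° C., stopped with EDTA. Phosphotyrosine detected by TR-FRET (Eu-PT66 antibody/APC-streptavidin, 665/620 nm ratio), with EDTA-pre-stopped background; IC50 (nM) from inhibition curve fit.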

EGFR (WT) = target: T5, EGFR (WT) (Homo sapiens, UniProt P00533); test: EGFR (WT) kinase inhibitory activity; type: biochemical; conditions: substrate peptide 500 nM
T5 construct: expressing a cytoplasmic domain of human EGFR (WT) with its N-terminus fused to a FLAG tag; FLAG (N); made in house; host or cells: insect Sf9 cells, baculovirus expression system
Method in brief: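 The kinase was the cytoplasmic domain of human EGFR WT, N-terminally FLAG-tagged, expressed in Sf9 cells via baculovirus and purified on anti-FLAG agarose. Phosphotyrosine was detected by Eu-PT66/APC-SA TR-FRET (665/620 nm ratio), and IC50 was fitted from % inhibition.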

[1] = tested on: NCI-H1975 expressing EGFR (T790M/L858R); test: Growth inhibition, NCI-H1975 expressing EGFR (T790M/L858R); type: cell-based; conditions: Homo sapiens, NCI-H1975, 72 h; cultured three days, CellTiter-Glo
Method in brief: (§1)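 Cells seeded and grown 1 day, then exposed 3 days at 37 °C/5% CO2 to serial dilutions (final DMSO 0.2%). CellTiter-Glo luminescence was read before dosing and after 3 days; GI50 from inhibition (C−T)/(C−C0)×100 by curve fitting.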

[2] = tested on: HCC827 expressing EGFR (d746-750); test: Growth inhibition, HCC827 expressing EGFR (d746-750); type: cell-based; conditions: Homo sapiens, HCC827, 72 h; cultured three days, CellTiter-Glo
Method in brief: as §1

[3] = tested on: A431 expressing EGFR (WT); test: Growth inhibition, A431 expressing EGFR (WT); type: cell-based; conditions: Homo sapiens, A-431, 72 h; cultured three days, CellTiter-Glo
Method in brief: as §1

T3 sequence (P00533 25-1210 L858R): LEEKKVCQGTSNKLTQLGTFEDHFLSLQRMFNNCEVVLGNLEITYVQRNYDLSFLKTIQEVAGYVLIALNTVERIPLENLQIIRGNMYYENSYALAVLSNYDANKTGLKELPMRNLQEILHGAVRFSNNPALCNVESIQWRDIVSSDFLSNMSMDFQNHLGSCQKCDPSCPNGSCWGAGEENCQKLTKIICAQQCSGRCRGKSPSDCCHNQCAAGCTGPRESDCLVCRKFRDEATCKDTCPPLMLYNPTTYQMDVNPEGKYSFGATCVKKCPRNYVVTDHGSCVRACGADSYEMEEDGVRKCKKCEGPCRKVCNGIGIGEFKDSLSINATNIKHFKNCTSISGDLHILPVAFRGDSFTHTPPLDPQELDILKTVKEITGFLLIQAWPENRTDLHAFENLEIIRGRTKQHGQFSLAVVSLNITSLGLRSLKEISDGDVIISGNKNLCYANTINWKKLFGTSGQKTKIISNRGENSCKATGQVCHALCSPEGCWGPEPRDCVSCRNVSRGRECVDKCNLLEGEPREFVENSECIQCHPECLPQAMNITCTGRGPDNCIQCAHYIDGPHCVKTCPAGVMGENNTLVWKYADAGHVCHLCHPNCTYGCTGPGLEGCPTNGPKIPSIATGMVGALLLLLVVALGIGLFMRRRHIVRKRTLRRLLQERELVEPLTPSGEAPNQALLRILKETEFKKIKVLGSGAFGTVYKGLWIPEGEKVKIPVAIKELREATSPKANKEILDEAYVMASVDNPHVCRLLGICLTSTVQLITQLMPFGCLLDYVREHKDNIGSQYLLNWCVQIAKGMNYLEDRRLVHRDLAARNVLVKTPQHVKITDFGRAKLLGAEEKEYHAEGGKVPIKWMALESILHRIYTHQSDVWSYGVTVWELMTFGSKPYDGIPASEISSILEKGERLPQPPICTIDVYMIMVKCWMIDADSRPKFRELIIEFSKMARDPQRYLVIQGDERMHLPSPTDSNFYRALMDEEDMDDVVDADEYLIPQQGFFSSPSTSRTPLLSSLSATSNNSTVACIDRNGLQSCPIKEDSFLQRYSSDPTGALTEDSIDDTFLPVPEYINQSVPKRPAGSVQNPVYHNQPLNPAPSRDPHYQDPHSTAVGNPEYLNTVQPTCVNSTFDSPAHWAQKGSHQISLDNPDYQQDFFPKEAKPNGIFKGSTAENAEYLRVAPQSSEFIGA
T4 sequence (P00533 with tags, fused parts or gaps DEL746-750 limits assumed): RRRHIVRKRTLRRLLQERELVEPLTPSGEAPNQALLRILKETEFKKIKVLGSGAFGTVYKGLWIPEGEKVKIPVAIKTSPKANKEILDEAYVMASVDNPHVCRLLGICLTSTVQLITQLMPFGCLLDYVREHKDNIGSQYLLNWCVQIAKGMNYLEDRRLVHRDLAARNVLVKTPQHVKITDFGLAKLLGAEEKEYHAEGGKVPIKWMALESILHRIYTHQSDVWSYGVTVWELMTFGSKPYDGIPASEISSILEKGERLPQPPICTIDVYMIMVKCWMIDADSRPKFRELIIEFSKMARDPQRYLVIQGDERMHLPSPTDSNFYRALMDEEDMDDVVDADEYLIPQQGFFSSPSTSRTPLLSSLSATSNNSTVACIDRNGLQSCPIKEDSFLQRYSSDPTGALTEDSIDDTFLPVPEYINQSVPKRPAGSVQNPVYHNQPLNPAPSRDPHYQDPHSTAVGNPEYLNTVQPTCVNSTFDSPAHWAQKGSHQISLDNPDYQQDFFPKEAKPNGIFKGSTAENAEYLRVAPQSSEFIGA
T1 sequence (P00533 25-1210 T790M/L858R): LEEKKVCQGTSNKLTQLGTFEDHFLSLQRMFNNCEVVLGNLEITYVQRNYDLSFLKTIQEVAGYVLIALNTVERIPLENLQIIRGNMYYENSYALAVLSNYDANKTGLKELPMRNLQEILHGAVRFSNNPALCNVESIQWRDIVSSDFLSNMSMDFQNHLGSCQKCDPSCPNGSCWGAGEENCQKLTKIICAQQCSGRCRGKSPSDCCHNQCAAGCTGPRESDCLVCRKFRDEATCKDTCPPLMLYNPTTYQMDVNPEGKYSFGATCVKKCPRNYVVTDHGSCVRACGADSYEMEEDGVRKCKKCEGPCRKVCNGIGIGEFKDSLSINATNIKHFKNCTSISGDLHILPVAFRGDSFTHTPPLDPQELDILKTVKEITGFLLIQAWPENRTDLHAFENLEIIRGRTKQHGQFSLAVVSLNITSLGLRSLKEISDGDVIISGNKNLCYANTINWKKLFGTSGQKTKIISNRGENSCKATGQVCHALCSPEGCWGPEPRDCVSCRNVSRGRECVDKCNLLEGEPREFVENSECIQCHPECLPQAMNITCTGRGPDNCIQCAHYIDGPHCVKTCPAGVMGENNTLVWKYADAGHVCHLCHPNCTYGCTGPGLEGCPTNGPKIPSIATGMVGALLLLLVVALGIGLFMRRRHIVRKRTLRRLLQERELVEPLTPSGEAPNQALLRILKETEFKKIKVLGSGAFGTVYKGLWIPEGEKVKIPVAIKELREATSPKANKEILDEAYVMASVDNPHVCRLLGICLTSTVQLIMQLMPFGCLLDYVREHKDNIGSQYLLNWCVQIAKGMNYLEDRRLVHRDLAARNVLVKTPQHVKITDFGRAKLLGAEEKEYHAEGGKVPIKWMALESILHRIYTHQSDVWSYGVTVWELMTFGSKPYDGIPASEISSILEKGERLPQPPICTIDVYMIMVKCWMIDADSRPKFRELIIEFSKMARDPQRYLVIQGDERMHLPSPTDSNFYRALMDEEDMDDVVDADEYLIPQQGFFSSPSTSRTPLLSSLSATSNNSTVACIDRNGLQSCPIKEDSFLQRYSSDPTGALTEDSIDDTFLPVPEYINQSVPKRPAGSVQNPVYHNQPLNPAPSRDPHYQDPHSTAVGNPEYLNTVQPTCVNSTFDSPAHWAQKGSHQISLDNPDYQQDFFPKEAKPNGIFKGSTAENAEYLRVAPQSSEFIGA
T2 sequence (P00533 with tags, fused parts or gaps DEL746-750/T790M limits assumed): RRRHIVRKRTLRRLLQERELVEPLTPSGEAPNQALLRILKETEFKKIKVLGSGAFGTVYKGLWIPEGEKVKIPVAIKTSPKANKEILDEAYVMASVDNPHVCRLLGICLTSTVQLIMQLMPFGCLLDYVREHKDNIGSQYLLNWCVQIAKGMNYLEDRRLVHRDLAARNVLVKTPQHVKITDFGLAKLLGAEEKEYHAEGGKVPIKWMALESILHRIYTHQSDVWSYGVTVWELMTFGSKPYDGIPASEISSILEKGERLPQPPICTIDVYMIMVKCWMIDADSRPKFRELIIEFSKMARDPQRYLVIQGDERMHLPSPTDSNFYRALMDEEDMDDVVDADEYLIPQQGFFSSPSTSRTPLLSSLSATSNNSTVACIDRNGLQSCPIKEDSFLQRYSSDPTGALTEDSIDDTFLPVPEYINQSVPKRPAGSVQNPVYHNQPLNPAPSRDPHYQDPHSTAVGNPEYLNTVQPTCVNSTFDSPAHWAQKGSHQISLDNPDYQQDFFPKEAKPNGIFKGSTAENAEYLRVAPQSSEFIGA
T5 sequence (P00533 669-1210 limits assumed): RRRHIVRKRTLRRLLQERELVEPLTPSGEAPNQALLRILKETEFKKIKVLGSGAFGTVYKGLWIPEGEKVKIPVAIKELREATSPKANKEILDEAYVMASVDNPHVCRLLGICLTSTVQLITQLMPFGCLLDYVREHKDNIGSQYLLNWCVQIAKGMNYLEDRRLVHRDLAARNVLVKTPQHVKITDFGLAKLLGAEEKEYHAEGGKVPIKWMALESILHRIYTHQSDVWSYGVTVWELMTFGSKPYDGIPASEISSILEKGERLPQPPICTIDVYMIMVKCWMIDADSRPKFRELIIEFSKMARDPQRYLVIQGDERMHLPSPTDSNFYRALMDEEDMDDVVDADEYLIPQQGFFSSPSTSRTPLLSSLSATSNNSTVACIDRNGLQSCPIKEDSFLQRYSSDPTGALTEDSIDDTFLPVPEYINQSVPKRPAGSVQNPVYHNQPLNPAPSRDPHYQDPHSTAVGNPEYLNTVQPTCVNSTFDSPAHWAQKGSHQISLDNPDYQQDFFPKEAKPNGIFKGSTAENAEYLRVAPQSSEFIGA

IC50 (EGFR (T790M/L858R)) [nM] | IC50 (EGFR (d746-750/T790M)) [nM] | IC50 (EGFR (L858R)) [nM] | IC50 (EGFR (d746-750)) [nM] | IC50 (EGFR (WT)) [nM] | GI50 [1] [nM] | GI50 [2] [nM] | GI50 [3] [nM] | Compound
0.35 | 0.23 | 0.37 | 0.33 | 5.5 | 56 | 5.7 | 1500 | C=CC(=O)N(C)[C@@H]1CC(=C)c2c(-c3cnc4ccccc4c3)c3c(N)ncnc3n2C1 [Example 22, (R)—N-(4-amino-6-methylene-5-(quinolin-3-yl)-6,7,8,9-tetrahydropyrimido[5,4-b]indolizin-8-yl)-N-methylacrylamide]
0.44 | 0.3 | 0.63 | 0.29 | 7.3 | 47 | 3.3 | 5100 | C=CC(=O)N(C)[C@@H]1C=C(C)c2c(-c3cnc4ccccc4c3)c3c(N)ncnc3n2C1 [Example 23, (R)—N-(4-amino-6-methyl-5-(quinolin-3-yl)-8,9-dihydropyrimido[5,4-b]indolizin-8-yl)-N-methylacrylamide]
0.83 | 0.31 | 1.1 | 0.85 | 8.6 | 110 | 4.9 | 3400 | C=CC(=O)N[C@@H]1Cn2c(c(-c3cnc4ccccc4c3)c3c(N)ncnc32)C1C (stereo partly drawn) [Example 24, N-((7S)-4-amino-6-methyl-5-(quinolin-3-yl)-7,8-dihydro-6H-pyrimido[5,4-b]pyrrolizin-7-yl)acrylamide]
